Laboratory results reported in ChEMBL document CHEMBL4842340, “Development of Cagrilintide, a Long-Acting Amylin Analogue” (J Med Chem, 2021).
pEC50, pIC50: −log10 of the molar value. ≈ marks a conversion by molar mass, not a printed value. *1 amine or outer side, *2 acyl side, *3 side chain or, on linkers, in order; H or OH if unused. Where a SMILES comes first, the peptide text is derived from it. Bridges are numbered along the chain shown (N, C = ends). The star is where a group is joined. C20 diacid = O=C(O)CCCCCCCCCCCCCCCCCCC(=O)*; γGlu = O=C(O)[C@H](CCC(=O)[*:2])N[*:1]

What was measured:
[1] = Agonist activity at human AMY3R (CT+RAMP3) expressed in Hollex1 cells incubated for 3 hrs by luminescence assay; type: cell-based; details: Hollex1, 3 h
Homo sapiens [2] = species: Homo sapiens; experiment: Ratio of IC50 for displacement of [125I]-calcitonin from human calcitonin receptor expressed in tk-ts 13 cells to IC50 for displacement of [125I]-amylin from human AMY3R (CTR+RAMP3) expressed in BHK-13 cells; type: cell-based
[3] = Solubility of the compound in lactate at pH 4 by UPLC analysis; type: physicochemical; details: lactate buffer
[4] = Solubility of the compound in lactate at pH 5 by UPLC analysis; type: physicochemical; details: lactate buffer
Rattus norvegicus [5] = species: Rattus norvegicus; experiment: Ratio of IC50 for displacement of [125I]-calcitonin from rat calcitonin receptor expressed in tk-ts 13 cells to IC50 for displacement of [125I]-amylin from rat AMY3R (CTR+RAMP3) expressed in BHK-13 cells; type: cell-based
[6] = Displacement of [125I]-amylin from human AMY3R (CTR+RAMP3) expressed in BHK-13 cells measured after 120 mins by scintillation proximity assay; type: cell-based
[7] = Displacement of [125I]-amylin from rat AMY3R (CTR+RAMP3) expressed in BHK-13 cells measured after 120 mins by scintillation proximity assay; type: cell-based
Homo sapiens [8] = species: Homo sapiens; experiment: Ratio of EC50 for human calcitonin receptor expressed in BHK570 cells to EC50 for human AMY3R (CT+RAMP3) expressed in Hollex1 cells; type: cell-based
[9] = Solubility of the compound in bis-tris propane at pH 6 by UPLC analysis; type: physicochemical; details: bis-tris propane buffer
Insulin (Homo sapiens) [10] = molecular target: Insulin (Homo sapiens) (UniProt P01308); experiment: Effect on insulin (unknown origin) amyloid fibril formation assessed as peptide recovery in glycyl-glycine buffer at pH 4 measured after 45 hrs by thioflavin-T fluorescence assay relative to control; set-up: concentration or dose not given beside the values
[11] = Solubility of the compound in lactate at pH 3 by UPLC analysis; type: physicochemical; details: lactate buffer
[12] = Displacement of [125I]-calcitonin from human calcitonin receptor expressed in tk-ts 13 cells measured after 120 mins by scintillation proximity assay; type: cell-based; details: tk-ts13
Rattus norvegicus [13] = experiment: Reduction in food intake in Sprague-Dawley rat at 3 nmol/kg, sc administered as single dose measured after 24 to 48 hrs relative to control; type: functional; set-up: scale not given: the % may be the effect or the level left; details: time 24-48 hrs
[14] = Solubility of the compound in bis-tris propane at pH 7 by UPLC analysis; type: physicochemical; details: bis-tris propane buffer
[15] = Agonist activity at human calcitonin receptor expressed in BHK570 cells assessed as increase in intracellular cAMP concentration incubated for 3 hrs in absence of albumin by CRE luciferase reporter gene assay; type: cell-based; details: BHK570, 3 h
[16] = Solubility of the compound in bis-tris propane at pH 8 by UPLC analysis; type: physicochemical; details: bis-tris propane buffer
Insulin (Homo sapiens) [17] = molecular target: Insulin (Homo sapiens) (UniProt P01308); experiment: Effect on insulin (unknown origin) amyloid fibril formation assessed as lag time in glycyl-glycine buffer at pH 4 measured after 45 hrs by thioflavin-T fluorescence assay
[18] = Solubility of the compound in bis-tris propane at pH 7.5 by UPLC analysis; type: physicochemical; details: bis-tris propane buffer
[19] = Solubility of the compound in bis-tris propane at pH 6.5 by UPLC analysis; type: physicochemical; details: bis-tris propane buffer
Rattus norvegicus [20] = experiment: Reduction in food intake in Sprague-Dawley rat at 3 nmol/kg, sc administered as single dose measured upto 24 hrs relative to control; type: functional; set-up: scale not given: the % may be the effect or the level left; details: time hrs <=24
[21] = Displacement of [125I]-calcitonin from rat calcitonin receptor expressed in tk-ts 13 cells measured after 120 mins by scintillation proximity assay; type: cell-based; details: tk-ts13
[22] = Agonist activity at rat calcitonin receptor expressed in BHK-13 cells assessed as increase in intracellular cAMP concentration incubated for 25 mins by CRE luciferase reporter gene assay; type: cell-based; details: BHK-13, 25 min
[23] = Agonist activity at rat AMY3R (CT+RAMP3) expressed in tk-ts13 cells assessed as increase in intracellular cAMP level incuabted for 25 mins by CRE luciferase reporter gene assay; type: cell-based; details: tk-ts13, 25 min
Rattus norvegicus [24] = species: Rattus norvegicus; experiment: Ratio of EC50 for rat calcitonin receptor expressed in BHK-13 cells to EC50 for rat AMY3R (CT+RAMP3) expressed in tk-ts13 cells; type: cell-based

Sequence of Insulin (Homo sapiens) (P01308 whole entry): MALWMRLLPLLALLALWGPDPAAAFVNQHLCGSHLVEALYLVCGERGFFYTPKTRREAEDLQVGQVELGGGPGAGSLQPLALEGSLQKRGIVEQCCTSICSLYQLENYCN

| pEC50 [1] | solubility [3] | solubility [4] | pIC50 [6] | pIC50 [7] | Activity (Insulin (Homo sapiens) [10]) | solubility [11] | pIC50 [12] | pEC50 [15] | solubility [16] | TIME (Insulin (Homo sapiens) [17]) | solubility [18] | pIC50 [21] | SMILES | Ratio IC50 (Homo sapiens [2]) | Ratio IC50 (Rattus norvegicus [5]) | Ratio EC50 (Homo sapiens [8]) | Activity (Rattus norvegicus [13]) | Activity (Rattus norvegicus [20]) | also measured |
| --- | --- | --- | --- | --- | --- | --- | --- | --- | --- | --- | --- | --- | --- | --- | --- | --- | --- | --- | --- |
| 9.90 | 200 µM (≈ 866 µg/mL) | 200 µM (≈ 866 µg/mL) | 8.87 | 9.74 | 0% | 200 µM (≈ 866 µg/mL) | 9.33 | 9.93 | 200 µM (≈ 866 µg/mL) | 9 h | 200 µM (≈ 866 µg/mL) | 9.03 | CC[C@H](C)[C@H](NC(=O)[C@@H]1CCCN1C(=O)CNC(=O)[C@H](Cc1ccccc1)NC(=O)[C@H](CC(N)=O)NC(=O)[C@H](CC(N)=O)NC(=O)[C@H](CO)NC(=O)[C@H](CO)NC(=O)[C@H](Cc1cnc[nH]1)NC(=O)[C@H](Cc1cnc[nH]1)NC(=O)[C@H](CC(C)C)NC(=O)[C@H](Cc1ccccc1)NC(=O)[C@H](CCC(=O)O)NC(=O)[C@H](C)NC(=O)[C@H](CC(C)C)NC(=O)[C@H](CCCNC(=N)N)NC(=O)[C@H](CCC(N)=O)NC(=O)[C@@H](NC(=O)[C@H](C)NC(=O)[C@@H]1CSSC[C@H](NC(=O)CC[C@H](NC(=O)CCCCCCCCCCCCCCCCCCC(=O)O)C(=O)O)C(=O)N[C@@H](CC(N)=O)C(=O)N[C@@H]([C@@H](C)O)C(=O)N[C@@H](C)C(=O)N[C@@H]([C@@H](C)O)C(=O)N1)[C@@H](C)O)C(=O)N[C@@H](CC(C)C)C(=O)N1CCC[C@H]1C(=O)N1CCC[C@H]1C(=O)N[C@H](C(=O)N[C@@H](CC(N)=O)C(=O)N[C@H](C(=O)NCC(=O)N[C@@H](CO)C(=O)N[C@@H](CC(N)=O)C(=O)N[C@H](C(=O)N[C@@H](Cc1ccc(O)cc1)C(N)=O)[C@@H](C)O)C(C)C)[C@@H](C)O ({C20 diacid-γGlu}-CNTATCATQRLAEFLHHSSNNFGPILPPTNVGSNTY-NH2; disulfide 1-6) | 0.3 | 5 | 1 | 36% | 39% | solubility [9]: 200 µM (≈ 866 µg/mL); solubility [14]: 200 µM (≈ 866 µg/mL); solubility [19]: 200 µM (≈ 866 µg/mL) |
| 9.99 | 200 µM (≈ 920 µg/mL) | 200 µM (≈ 920 µg/mL) | 9.44 | 10.32 | 9% | 200 µM (≈ 920 µg/mL) | 9.95 | 9.78 | 200 µM (≈ 920 µg/mL) | 30 h | 200 µM (≈ 920 µg/mL) | 9.66 | CC[C@H](C)[C@H](NC(=O)[C@@H]1CCCN1C(=O)CNC(=O)[C@H](Cc1ccccc1)NC(=O)[C@H](CC(N)=O)NC(=O)[C@H](CC(N)=O)NC(=O)[C@H](CO)NC(=O)[C@H](CO)NC(=O)[C@H](Cc1cnc[nH]1)NC(=O)[C@H](Cc1cnc[nH]1)NC(=O)[C@H](CC(C)C)NC(=O)[C@H](Cc1ccccc1)NC(=O)[C@H](CCC(=O)O)NC(=O)[C@H](C)NC(=O)[C@H](CC(C)C)NC(=O)[C@H](CCCNC(=N)N)NC(=O)[C@H](CCC(N)=O)NC(=O)[C@@H](NC(=O)[C@H](C)NC(=O)[C@@H]1CSSC[C@H](NC(=O)[C@H](Cc2cnc[nH]2)NC(=O)[C@H](Cc2cnc[nH]2)NC(=O)CC[C@H](NC(=O)CCCCCCCCCCCCCCCCCCC(=O)O)C(=O)O)C(=O)N[C@@H](CC(N)=O)C(=O)N[C@@H]([C@@H](C)O)C(=O)N[C@@H](C)C(=O)N[C@@H]([C@@H](C)O)C(=O)N1)[C@@H](C)O)C(=O)N[C@@H](CC(C)C)C(=O)N1CCC[C@H]1C(=O)N1CCC[C@H]1C(=O)N[C@H](C(=O)N[C@@H](CC(N)=O)C(=O)N[C@H](C(=O)NCC(=O)N[C@@H](CO)C(=O)N[C@@H](CC(N)=O)C(=O)N[C@H](C(=O)N[C@@H](Cc1ccc(O)cc1)C(N)=O)[C@@H](C)O)C(C)C)[C@@H](C)O ({C20 diacid-γGlu}-HHCNTATCATQRLAEFLHHSSNNFGPILPPTNVGSNTY-NH2; disulfide 3-8) | 0.3 | 5 | 2 | 22% | 40% | pEC50 [22]: 9.66; pEC50 [23]: 9.83; Ratio EC50 (Rattus norvegicus [24]): 2 |
